Patent US10301297B2, “Substituted nicotinimide inhibitors of BTK and their preparation and use in the treatment of cancer, inflammation and autoimmune disease” (GUANGZHOU INNOCARE PHARMA TECH CO., LTD., priority 2013, dated 2019)
pIC50: −log10 of the molar value.

Experiments:
[1] = biological target: LCK (Homo sapiens (Human), UniProt P06239); assay: kinase binding screen (affinity beads, qPCR readout) at 1000 nM; conditions: read-out: % Inhibition @ 1000 nM
[2] = biological target: HCK (Homo sapiens (Human), UniProt P08631); assay: as above; conditions: read-out: % Inhibition @ 1000 nM
HCK, sequence (P08631 whole entry): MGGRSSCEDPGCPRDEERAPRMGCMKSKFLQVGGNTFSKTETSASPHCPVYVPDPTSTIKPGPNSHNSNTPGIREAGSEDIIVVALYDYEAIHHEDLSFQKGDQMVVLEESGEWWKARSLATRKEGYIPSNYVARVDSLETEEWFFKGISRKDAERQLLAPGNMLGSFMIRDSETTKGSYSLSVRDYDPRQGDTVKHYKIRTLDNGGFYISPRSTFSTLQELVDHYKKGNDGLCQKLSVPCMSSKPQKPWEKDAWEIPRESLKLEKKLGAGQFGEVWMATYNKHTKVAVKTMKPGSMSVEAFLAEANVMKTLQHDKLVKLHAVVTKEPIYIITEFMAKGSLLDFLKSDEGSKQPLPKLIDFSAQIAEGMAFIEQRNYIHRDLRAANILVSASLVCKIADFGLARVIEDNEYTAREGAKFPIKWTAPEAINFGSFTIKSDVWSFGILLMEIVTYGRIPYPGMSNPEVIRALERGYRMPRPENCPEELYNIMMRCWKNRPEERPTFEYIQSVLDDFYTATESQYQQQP

[3] = biological target: YES (Homo sapiens (Human), UniProt P07947); assay: as above; conditions: read-out: % Inhibition @ 1000 nM
YES, sequence (P07947 whole entry): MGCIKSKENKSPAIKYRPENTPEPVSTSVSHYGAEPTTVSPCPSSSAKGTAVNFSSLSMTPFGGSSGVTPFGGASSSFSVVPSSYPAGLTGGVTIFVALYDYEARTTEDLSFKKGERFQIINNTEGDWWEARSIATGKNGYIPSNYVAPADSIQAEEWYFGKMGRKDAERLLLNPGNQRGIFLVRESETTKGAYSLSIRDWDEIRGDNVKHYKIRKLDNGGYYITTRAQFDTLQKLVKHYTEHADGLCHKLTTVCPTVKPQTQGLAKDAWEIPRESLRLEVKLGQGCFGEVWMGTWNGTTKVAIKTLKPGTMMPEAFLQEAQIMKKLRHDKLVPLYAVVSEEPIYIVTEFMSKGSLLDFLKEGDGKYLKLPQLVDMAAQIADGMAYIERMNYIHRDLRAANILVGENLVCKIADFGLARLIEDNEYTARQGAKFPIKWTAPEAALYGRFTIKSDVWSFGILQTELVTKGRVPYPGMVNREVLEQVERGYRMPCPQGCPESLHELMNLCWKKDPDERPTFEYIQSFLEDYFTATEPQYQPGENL

[4] = biological target: FGR (Homo sapiens (Human), UniProt P09769); assay: as above; conditions: read-out: % Inhibition @ 1000 nM
FGR, sequence (P09769 whole entry): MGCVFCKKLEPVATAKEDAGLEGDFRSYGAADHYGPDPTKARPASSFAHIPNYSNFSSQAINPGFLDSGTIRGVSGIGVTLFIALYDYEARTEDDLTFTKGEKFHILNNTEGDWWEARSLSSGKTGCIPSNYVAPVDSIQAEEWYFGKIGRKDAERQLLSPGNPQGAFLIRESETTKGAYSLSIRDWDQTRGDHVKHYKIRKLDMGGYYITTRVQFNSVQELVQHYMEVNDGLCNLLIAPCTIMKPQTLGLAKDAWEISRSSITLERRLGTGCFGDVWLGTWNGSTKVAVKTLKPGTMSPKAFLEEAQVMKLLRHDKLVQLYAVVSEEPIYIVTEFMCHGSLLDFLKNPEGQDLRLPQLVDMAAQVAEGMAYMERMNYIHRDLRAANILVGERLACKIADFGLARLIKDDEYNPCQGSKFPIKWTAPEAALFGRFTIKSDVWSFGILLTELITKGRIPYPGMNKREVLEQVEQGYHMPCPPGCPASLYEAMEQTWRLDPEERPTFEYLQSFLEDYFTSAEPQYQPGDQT

[5] = biological target: LYN (Homo sapiens (Human), UniProt P07948); assay: as above; conditions: read-out: % Inhibition @ 1000 nM
LYN, sequence (P07948 whole entry): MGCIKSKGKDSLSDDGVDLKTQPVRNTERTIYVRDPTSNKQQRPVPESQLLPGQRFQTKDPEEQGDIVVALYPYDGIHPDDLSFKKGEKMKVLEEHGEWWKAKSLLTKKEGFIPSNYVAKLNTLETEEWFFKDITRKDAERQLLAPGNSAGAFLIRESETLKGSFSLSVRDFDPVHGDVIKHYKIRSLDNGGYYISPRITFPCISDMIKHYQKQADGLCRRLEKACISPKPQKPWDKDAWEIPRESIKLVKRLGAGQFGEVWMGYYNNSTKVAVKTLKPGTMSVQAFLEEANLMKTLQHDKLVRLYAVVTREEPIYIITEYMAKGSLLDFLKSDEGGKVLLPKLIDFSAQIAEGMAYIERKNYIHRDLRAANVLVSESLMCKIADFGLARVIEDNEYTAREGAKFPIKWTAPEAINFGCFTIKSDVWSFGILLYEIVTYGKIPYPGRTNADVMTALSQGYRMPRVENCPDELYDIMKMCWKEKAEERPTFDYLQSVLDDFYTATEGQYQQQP

[6] = biological target: FYN (Homo sapiens (Human), UniProt P06241); assay: as above; conditions: read-out: % Inhibition @ 1000 nM
FYN, sequence (P06241 whole entry): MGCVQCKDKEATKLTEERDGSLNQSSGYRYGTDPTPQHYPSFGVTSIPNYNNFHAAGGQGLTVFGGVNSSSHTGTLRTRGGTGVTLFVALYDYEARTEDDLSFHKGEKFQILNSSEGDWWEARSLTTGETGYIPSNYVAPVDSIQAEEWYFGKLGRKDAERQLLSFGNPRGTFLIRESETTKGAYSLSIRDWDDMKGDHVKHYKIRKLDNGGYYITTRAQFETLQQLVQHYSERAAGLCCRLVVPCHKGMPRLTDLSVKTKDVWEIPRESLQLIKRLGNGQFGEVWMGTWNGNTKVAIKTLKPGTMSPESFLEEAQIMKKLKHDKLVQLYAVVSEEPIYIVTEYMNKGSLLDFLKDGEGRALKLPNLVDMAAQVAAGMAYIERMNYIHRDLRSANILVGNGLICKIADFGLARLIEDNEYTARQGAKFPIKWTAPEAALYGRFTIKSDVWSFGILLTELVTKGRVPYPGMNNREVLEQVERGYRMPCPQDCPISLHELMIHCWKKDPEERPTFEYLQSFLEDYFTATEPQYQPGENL

[7] = biological target: BLK (Homo sapiens (Human), UniProt P51451); assay: as above; conditions: read-out: % Inhibition @ 1000 nM
BLK, sequence (P51451 whole entry): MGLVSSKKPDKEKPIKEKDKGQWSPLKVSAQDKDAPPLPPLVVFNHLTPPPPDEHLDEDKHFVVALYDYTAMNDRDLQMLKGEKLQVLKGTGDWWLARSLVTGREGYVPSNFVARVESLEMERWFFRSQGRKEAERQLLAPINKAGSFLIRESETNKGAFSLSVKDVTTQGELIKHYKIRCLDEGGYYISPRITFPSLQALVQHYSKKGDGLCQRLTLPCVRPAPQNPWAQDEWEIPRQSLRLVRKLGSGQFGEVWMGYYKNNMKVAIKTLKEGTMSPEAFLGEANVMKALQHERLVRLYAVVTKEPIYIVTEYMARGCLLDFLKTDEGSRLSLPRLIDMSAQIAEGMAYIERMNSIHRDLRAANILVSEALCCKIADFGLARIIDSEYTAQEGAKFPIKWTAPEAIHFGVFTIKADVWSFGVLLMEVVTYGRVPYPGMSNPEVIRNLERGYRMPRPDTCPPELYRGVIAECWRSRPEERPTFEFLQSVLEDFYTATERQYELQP

[8] = biological target: EGFR (Homo sapiens (Human), UniProt P00533); assay: as above; conditions: read-out: % Inhibition @ 1000 nM
[9] = biological target: SRC (Homo sapiens (Human), UniProt P12931); assay: as above
SRC, sequence (P12931 whole entry, looked up): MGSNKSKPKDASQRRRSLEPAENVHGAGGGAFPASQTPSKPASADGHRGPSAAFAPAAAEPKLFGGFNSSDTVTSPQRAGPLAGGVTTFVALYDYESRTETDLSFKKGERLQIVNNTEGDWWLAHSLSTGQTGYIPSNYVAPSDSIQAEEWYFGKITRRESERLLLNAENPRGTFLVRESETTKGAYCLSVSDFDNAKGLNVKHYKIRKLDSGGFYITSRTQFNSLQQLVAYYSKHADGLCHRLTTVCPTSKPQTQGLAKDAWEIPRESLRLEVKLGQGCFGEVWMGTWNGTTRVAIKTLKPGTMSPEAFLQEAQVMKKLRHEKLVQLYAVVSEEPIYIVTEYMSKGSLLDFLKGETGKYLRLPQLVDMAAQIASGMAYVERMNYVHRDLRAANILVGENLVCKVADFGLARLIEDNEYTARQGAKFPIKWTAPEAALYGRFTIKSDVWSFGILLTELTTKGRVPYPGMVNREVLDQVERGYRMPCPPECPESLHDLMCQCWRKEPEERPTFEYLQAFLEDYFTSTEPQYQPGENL

[10] = biological target: T1, BTK (Homo sapiens (Human), UniProt Q06187); assay: ADP-Glo Kinase biochemical assay, IC50 determination of BTK inhibitors; conditions: head-to-head assays
T1 sequence (Q06187 whole entry): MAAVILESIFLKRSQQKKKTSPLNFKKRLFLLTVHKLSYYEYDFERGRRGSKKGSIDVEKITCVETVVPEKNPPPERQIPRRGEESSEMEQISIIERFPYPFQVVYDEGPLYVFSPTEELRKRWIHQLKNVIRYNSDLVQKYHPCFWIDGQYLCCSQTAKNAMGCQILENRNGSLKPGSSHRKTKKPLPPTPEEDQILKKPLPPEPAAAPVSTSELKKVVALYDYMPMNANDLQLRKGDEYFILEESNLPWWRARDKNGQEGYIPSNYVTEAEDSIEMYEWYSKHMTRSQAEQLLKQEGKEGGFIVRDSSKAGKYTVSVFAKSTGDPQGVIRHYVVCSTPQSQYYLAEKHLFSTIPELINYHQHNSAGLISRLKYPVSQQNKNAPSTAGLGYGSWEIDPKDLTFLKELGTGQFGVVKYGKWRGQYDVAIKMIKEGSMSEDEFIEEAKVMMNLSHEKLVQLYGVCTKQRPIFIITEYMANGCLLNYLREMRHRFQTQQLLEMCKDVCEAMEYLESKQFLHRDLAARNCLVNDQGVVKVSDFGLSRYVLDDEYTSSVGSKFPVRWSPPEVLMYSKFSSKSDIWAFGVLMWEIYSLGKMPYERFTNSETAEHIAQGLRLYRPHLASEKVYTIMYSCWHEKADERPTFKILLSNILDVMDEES
Method: Biological Properties: IC50 Determination of BTK Inhibitors in ADP-Glo Kinase Biochemical Assay
• Enzyme concentration: 8 ng/5 ul. • ATP concentration: 50 uM • Substrate (peptide) concentration: 0.2 mg/ml. • Reaction buffer composition: 40 mM Tris-HCl pH7.5, 10 mM MgCl2, 2 mM MnCl2, 0.1 mg/mL BSA, 0.05 mM DTT. • Test compound concentration: DMSO≤0.5%. Methods: Compound Dosage Gradient Solution Preparation: […]
1× and 2× assay buffer were made at first. BTK kinase was diluted with 1× assay buffer but substrate was diluted with 2× assay buffer. 1 ul of diluted compound was transferred into 384-well assay plate, and then 2.0 ul of enzyme solution was added, and spun at 2000 rpm for 1 min. This mixture was incubated at 24° C. for 30 mins. 2 ul of peptide substrate/ATP mixture was added into the assay plate to start the reaction. The mixture was mixed thoroughly and then the 384-well plate was spun and incubated at 24° C. for 60 mins. 5.0 ul of ADP-Glo Reagent was added to stop the kinase activity and deplete the ATP unconsumed, and the plate was mixed thoroughly and incubated at 24° C. for 40 min. Then, 10.0 ul of Kinase Detection reagent was added, and the plate was centrifuged and then kept at 24° C. for 30 min. The luminescence signal was read on Envision. […]
All data was analyzed with IDBS XLfit5 software (ID Business Solutions Ltd., UK).

[11] = biological target: T1, BTK; assay: kinase binding screen (affinity beads, qPCR readout) at 1000 nM

LCK, sequence (P06239 whole entry): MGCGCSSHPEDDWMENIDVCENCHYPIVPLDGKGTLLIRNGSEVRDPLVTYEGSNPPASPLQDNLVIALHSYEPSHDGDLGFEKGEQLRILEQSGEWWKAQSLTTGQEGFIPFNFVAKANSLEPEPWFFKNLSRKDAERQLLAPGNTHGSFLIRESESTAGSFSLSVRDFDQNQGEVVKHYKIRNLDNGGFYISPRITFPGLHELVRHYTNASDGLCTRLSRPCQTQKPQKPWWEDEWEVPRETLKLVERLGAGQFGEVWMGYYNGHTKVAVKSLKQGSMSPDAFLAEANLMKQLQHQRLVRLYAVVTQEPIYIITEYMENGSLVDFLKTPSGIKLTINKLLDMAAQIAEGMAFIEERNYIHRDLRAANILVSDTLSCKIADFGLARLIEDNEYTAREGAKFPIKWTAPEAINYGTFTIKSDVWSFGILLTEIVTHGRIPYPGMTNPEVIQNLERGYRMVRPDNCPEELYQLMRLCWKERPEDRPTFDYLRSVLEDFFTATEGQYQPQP

| Structure (SMILES) | inhibition at 1 µM [1] [%] | inhibition at 1 µM [2] [%] | inhibition at 1 µM [3] [%] | inhibition at 1 µM [4] [%] | inhibition at 1 µM [5] [%] | inhibition at 1 µM [6] [%] | inhibition at 1 µM [7] [%] | inhibition at 1 µM [8] [%] | Fold Difference ([9]; BTK vs SRC) [x] | inhibition at 1 µM ([9]; SRC, 1000 nM) [%] | pIC50 ([10]; unit not printed in Table 2, read-out: BTK in vitro potency) | improvement in potency over Analogs 1 and 2 ([10]; in vitro BTK potency) [×] | inhibition at 1 µM [11] [%] |
| --- | --- | --- | --- | --- | --- | --- | --- | --- | --- | --- | --- | --- | --- |
| C=CC(=O)N1CCC(c2ccc(C(N)=O)c(-c3ccc(Oc4ccccc4)cc3)n2)CC1 [Example 3, 6-(1-acryloylpiperidin-4-yl)-2-(4-phenoxyphenyl)nicotinamide] | 11 | 0 | 8 | 0 | 3 | 0 | 51 | – | – | – | – | – | – |
| C=CC(=O)N1CCN(c2ccc(C(N)=O)c(-c3ccc(Oc4ccccc4)cc3)n2)CC1 [Example 5, 6-(4-acryloylpiperazin-1-yl)-2-(4-phenoxyphenyl)nicotinamide] | 0 | 21 | 6 | 0 | 7 | 5 | 46 | 23 | >100 | 33 | 8.33 | ~100 | 99.7 |
